Experimental data reported in patent US20230399342A1 (Incyte Corporation, priority 2022, published 2023).

Legend:
DGKα = DGKα (Homo sapiens (Human), UniProt P23743); assay: In vitro DGKα inhibition assay (ADP-Glo); format: biochemical; conditions: His-tagged human recombinant enzyme, 0.1 nM DGKα, 50 μM ATP, 20 μM DLG, 90 minute incubation
Method: (§1) The DGKα and DGKξ biochemical reactions were performed using His-tagged human recombinant enzymes (Signal Chem, DGKα, #D21-1OBH; DGKξ, #D30-10H)) and DLG (Dilauroyl-sn-glycerol) lipid substrate (Signal Chem, #D430-59). ADP-Glo assay was performed using ADP-Glog™ kinase Assay kit (Promega, #V9104). The reactions were carried out in assay buffer containing 40 mM Tris, pH 7.5, 0.1% CHAPS, 0.1% Prionex, 40 mM NaCl, 5 mM MgCl2, 1 mM CaCl2, and 1 mM DTT. DGKα reactions contained 0.1 nM DGKα, 50 μM ATP, and 20 μM DLG. And DGKC reactions contained 0.4 nM DGK, 30 μM ATP, and 20 μM DLG.
(§2) For compound inhibition studies, 40 nL test compound in DMSO was added to wells of white polystyrene plates in 384-well (Greiner, #784075) or 1536-well format (Greiner, #782075). Compounds were added with top concentration of 2 mM with 11 point, 3-fold dilution series. Enzyme solution (contains 2×DGK enzyme concentration in Ix assay buffer) was added to the plate in 2 μL/well volume, followed by 2 μL/well of substrate solution (contains 2×concentration of ATP and DLG substrate in Ix assay buffer). Plates were then centrifuged for 1 min at 1200 RPM and sealed or lidded. For 4 μL reaction volume, test compounds were therefore diluted 100× to final top concentration of 20 μM. After 90 minute incubation, reactions were quenched by addition of 2 μL/well Promega ADP-Glo Reagent, followed by centrifugation and lidding. After 60 min incubation, 2 μL/well Promega Kinase Detection Reagent was added, plates centrifuged, and incubated for 30 min. Plates were then read using Luminescence method on BMG PHERAstar FSX plate reader. Percent inhibition was calculated and IC50s were determined using 4-parameter fit in Genedata Screener. Labcyte Echo acoustic dispenser was used for compound addition, and Formulatrix Tempest liquid handler was used for all reagent dispenses.

DGKζ = DGKζ (Homo sapiens (Human), UniProt Q13574); assay: In vitro DGKζ inhibition assay (ADP-Glo); format: biochemical; conditions: His-tagged human recombinant enzyme, 0.4 nM DGK, 30 μM ATP, 20 μM DLG, 90 minute incubation
Method: as §1, §2

Sequence of DGKα (P23743 whole entry): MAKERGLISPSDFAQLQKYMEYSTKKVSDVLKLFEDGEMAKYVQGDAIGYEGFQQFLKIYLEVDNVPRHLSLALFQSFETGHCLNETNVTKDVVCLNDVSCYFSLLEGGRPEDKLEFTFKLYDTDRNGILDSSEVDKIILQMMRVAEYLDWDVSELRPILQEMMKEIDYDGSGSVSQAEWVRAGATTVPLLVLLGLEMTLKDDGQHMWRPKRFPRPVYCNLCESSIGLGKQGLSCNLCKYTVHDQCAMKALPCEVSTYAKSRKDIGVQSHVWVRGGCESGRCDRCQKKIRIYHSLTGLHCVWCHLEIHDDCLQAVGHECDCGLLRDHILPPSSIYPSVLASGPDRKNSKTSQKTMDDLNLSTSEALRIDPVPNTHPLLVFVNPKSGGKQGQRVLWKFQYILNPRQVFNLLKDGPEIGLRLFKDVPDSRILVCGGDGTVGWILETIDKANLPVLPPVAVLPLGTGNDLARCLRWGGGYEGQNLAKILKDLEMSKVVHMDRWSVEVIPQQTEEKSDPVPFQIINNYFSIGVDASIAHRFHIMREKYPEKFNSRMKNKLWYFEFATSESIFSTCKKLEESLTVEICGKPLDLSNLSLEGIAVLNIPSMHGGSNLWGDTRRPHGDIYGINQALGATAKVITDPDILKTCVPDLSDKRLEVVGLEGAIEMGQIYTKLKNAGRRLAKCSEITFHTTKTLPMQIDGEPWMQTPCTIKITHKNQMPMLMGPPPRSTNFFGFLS
Sequence of DGKζ (Q13574 whole entry): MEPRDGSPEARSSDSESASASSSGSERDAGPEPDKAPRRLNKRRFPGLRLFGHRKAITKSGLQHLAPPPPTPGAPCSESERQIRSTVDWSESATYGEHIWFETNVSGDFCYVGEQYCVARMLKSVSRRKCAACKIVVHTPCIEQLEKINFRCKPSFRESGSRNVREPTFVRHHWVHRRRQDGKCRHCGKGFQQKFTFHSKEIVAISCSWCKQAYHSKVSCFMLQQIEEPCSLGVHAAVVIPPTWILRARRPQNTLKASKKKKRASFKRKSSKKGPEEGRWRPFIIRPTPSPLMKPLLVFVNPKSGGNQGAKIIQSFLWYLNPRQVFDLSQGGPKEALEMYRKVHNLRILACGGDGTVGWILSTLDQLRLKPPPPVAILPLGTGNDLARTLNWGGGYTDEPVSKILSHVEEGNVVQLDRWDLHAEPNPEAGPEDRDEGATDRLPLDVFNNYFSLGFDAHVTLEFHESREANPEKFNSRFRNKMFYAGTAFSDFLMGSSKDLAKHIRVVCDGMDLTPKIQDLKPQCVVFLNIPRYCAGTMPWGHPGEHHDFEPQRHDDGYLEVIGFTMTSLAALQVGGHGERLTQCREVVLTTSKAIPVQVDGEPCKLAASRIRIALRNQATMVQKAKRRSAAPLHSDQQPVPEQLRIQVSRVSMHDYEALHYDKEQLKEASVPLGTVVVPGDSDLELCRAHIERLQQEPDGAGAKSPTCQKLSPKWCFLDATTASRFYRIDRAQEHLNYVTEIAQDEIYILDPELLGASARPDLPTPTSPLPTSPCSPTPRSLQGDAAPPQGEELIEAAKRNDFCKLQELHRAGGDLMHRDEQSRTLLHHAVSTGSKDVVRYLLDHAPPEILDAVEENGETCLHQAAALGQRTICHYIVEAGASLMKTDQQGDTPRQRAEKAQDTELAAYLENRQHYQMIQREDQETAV

IC50 (DGKα) [nM] | IC50 (DGKζ) [nM] | SMILES
≤ 20 | ≤ 20 | CC[C@@H]1CN(c2nc3nncn3c3c2nc(C)n3C[C@@H]2CCCO2)[C@@H](C)CN1C(c1ccc(F)cc1)c1ccc(C#N)cc1 (stereo partly drawn) [Example 133, 4-(((2R,5S)-2-Ethyl-5-methyl-4-(2-methyl-1-(((S)-tetrahydrofuran-2-yl)methyl)-1H-[1,2,4]triazolo[3,4-b]purin-4-yl)piperazin-1-yl)(4-fluorophenyl)methyl)benzonitrile]
≤ 20 | ≤ 20 | C[C@@H]1CN(c2nc3nncn3c3c2ncn3CCN(C)C)[C@@H](C)CN1C(c1ccc(Cl)cc1)C1CC(F)(F)C1 (single isomer, unassigned) [Example 64]
≤ 20 | > 2000 | C[C@@H]1CN(c2cc3nncn3c3ccsc23)[C@@H](C)CN1C(c1ccc(F)cc1)c1ccc(F)cc1 [Example 11, 5-((2S,5R)-4-(Bis(4-fluorophenyl)methyl)-2,5-dimethylpiperazin-1-yl)thieno[2,3-e][1,2,4]triazolo[4,3-a]pyridine]
≤ 20 | > 2000 | C[C@@H]1CN(c2nc3nncn3c3c2cnn3C)[C@@H](C)CN1C(c1ccc(F)cc1)c1ccc(F)cc1 [Example 6, 4-((2S,5R)-4-(Bis(4-fluorophenyl)methyl)-2,5-dimethylpiperazin-1-yl)-1-methyl-1H-pyrazolo[4,3-e][1,2,4]triazolo[4,3-a]pyrimidine]
≤ 20 | ≤ 20 | C[C@H]1CN(C(c2ccc(F)cc2)c2ccc(F)cc2)[C@H](CC#N)CN1c1nc2nncn2c2c1ncn2C [Example 16, 2-((2R,5S)-1-(Bis(4-fluorophenyl)methyl)-5-methyl-4-(1-methyl-1H-[1,2,4]triazolo[3,4-b]purin-4-yl)piperazin-2-yl)acetonitrile]
≤ 20 | ≤ 20 | Cc1nc2c(N3C[C@@H](C)N(C(c4ccc(C(F)(F)F)c(Cl)c4)C(C)C)C[C@@H]3C)nc3nncn3c2n1C[C@@H]1CCCO1 (stereo partly drawn) [Example 85, 4-((2S,5R)-4-(1-(3-Chloro-4-(trifluoromethyl)phenyl)-2-methylpropyl)-2,5-dimethylpiperazin-1-yl)-2-methyl-1-(((S)-tetrahydrofuran-2-yl)methyl)-1H-[1,2,4]triazolo[3,4-b]purine]
≤ 20 | ≤ 20 | COc1ccc([C@@H](C(C)C)N2C[C@H](C)N(c3nc4nncn4c4c3nc(C)n4C[C@@H]3CCCO3)C[C@H]2C)cc1 [Example 78, 4-((2S,5R)-4-((R)-1-(4-methoxyphenyl)-2-methylpropyl)-2,5-dimethylpiperazin-1-yl)-2-methyl-1-(((S)-tetrahydrofuran-2-yl)methyl)-1H-[1,2,4]triazolo[3,4-b]purine]
≤ 20 | ≤ 20 | CC[C@@H]1CN(c2nc3nncn3c3c2nc(C)n3C[C@H]2CCCO2)[C@@H](C)CN1C(c1ccc(Cl)cc1)c1ccc(Cl)cc1 [Example 42, 4-((2S,5R)-4-(Bis(4-chlorophenyl)methyl)-5-ethyl-2-methylpiperazin-1-yl)-2-methyl-1-(((R)-tetrahydrofuran-2-yl)methyl)-1H-[1,2,4]triazolo[3,4-b]purine]
≤ 20 | ≤ 20 | Cc1nc2c(N3C[C@@H](C)N(C(c4cc(F)ccc4F)C4CC(F)(F)C4)C[C@@H]3C)nc3nncn3c2n1C[C@@H]1CCCO1 (stereo partly drawn) [Example 53, 4-((2S,5R)-4-((3,3-Difluorocyclobutyl)(2,5-difluorophenyl)methyl)-2,5-dimethylpiperazin-1-yl)-2-methyl-1-(((S)-tetrahydrofuran-2-yl)methyl)-1H-[1,2,4]triazolo[3,4-b]purine]
≤ 20 | ≤ 20 | Cc1nc2c(N3C[C@@H](C)N([C@H](c4ccc(Br)cc4)C(C)C)C[C@@H]3C)nc3nncn3c2n1C[C@@H]1CCCO1 [Example 138, 4-((2S,5R)-4-((S)-1-(4-Bromophenyl)-2-methylpropyl)-2,5-dimethylpiperazin-1-yl)-2-methyl-1-(((S)-tetrahydrofuran-2-yl)methyl)-1H-[1,2,4]triazolo[3,4-b]purine]
≤ 20 | ≤ 20 | Cc1nc2c(N3C[C@@H](C)N(C(c4ccc(F)c(C(F)F)c4)C4CC(F)(F)C4)C[C@@H]3C)nc3nncn3c2n1C[C@@H]1CCCO1 (stereo partly drawn) [Example 54, 4-((2S,5R)-4-((3,3-Difluorocyclobutyl)(3-(difluoromethyl)-4-fluorophenyl)methyl)-2,5-dimethylpiperazin-1-yl)-2-methyl-1-(((S)-tetrahydrofuran-2-yl)methyl)-1H-[1,2,4]triazolo[3,4-b]purine]
≤ 20 | ≤ 20 | CC[C@@H]1CN(c2nc3nncn3c3c2nnn3C[C@@H]2CCCO2)[C@@H](C)CN1C(c1ccc(Cl)cc1)C1CC(F)(F)C1 (stereo partly drawn) [Example 121, 4-((2S,5R)-4-((4-Chlorophenyl)(3,3-difluorocyclobutyl)methyl)-5-ethyl-2-methylpiperazin-1-yl)-1-(((S)-tetrahydrofuran-2-yl)methyl)-1H-[1,2,3]triazolo[4,5-e][1,2,4]triazolo[4,3-a]pyrimidine]
≤ 20 | ≤ 20 | CC[C@@H]1CN(c2nc3nncn3c3c2ncn3CCN(C)C)[C@@H](C)CN1C(c1ccc(Cl)cc1)C1CC(F)(F)C1 (stereo partly drawn) [Example 66, 2-(4-((2S,5R)-4-((4-Chlorophenyl)(3,3-difluorocyclobutyl)methyl)-5-ethyl-2-methylpiperazin-1-yl)-1H-[1,2,4]triazolo[3,4-b]purin-1-yl)-N,N-dimethylethan-1-amine]
≤ 20 | ≤ 20 | CC(C)[C@H](c1ccc(F)cc1)N1C[C@H](C)N(c2nc3nncn3c3c2ncn3CC2CC2)C[C@H]1C [Example 23, 1-(cyclopropylmethyl)-4-((2S,5R)-4-((R)-1-(4-fluorophenyl)-2-methylpropyl)-2,5-dimethylpiperazin-1-yl)-1H-[1,2,4]triazolo[3,4-b]purine]
≤ 20 | ≤ 20 | C[C@@H]1CN(c2nc3nncn3c3c2ncn3CCN(C)C)[C@@H](C)CN1C(c1ccc(C(F)(F)F)cc1)[C@H]1C[C@H](C(F)(F)F)C1 (stereo partly drawn) [Example 116, 2-(4-((2S,5R)-2,5-Dimethyl-4-(((trans)-3-(trifluoromethyl)cyclobutyl)(4-(trifluoromethyl)phenyl)methyl)piperazin-1-yl)-1H-[1,2,4]triazolo[3,4-b]purin-1-yl)-N,N-dimethylethan-1-amine]
≤ 20 | ≤ 20 | Cc1nc2c(N3C[C@@H](C)N(C(c4ccc(F)c(C(F)F)c4)C(C)C)C[C@@H]3C)nc3nncn3c2n1C[C@@H]1CCCO1 (stereo partly drawn) [Example 82, 4-((2S,5R)-4-(1-(3-(Difluoromethyl)-4-fluorophenyl)-2-methylpropyl)-2,5-dimethylpiperazin-1-yl)-2-methyl-1-(((S)-tetrahydrofuran-2-yl)methyl)-1H-[1,2,4]triazolo[3,4-b]purine]
≤ 20 | ≤ 20 | CC[C@@H]1CN(c2nc3nncn3c3c2nc(C)n3C[C@@H]2CCCO2)[C@@H](C)CN1[C@H](c1ccc(C(F)(F)F)cc1)C(C)C [Example 128, 4-((2S,5R)-5-Ethyl-2-methyl-4-((S)-2-methyl-1-(4-(trifluoromethyl)phenyl)propyl)piperazin-1-yl)-2-methyl-1-(((S)-tetrahydrofuran-2-yl)methyl)-1H-[1,2,4]triazolo[3,4-b]purine]

SMILES | IC50 (DGKα) [nM] | IC50 (DGKζ) [nM]
Cc1nc2c(N3C[C@@H](C)N([C@@H](c4ccc(F)c(Cl)c4)C(C)C)C[C@@H]3C)nc3nncn3c2n1C[C@@H]1CCCO1 (single isomer, unassigned) [Example 87] | ≤ 20 | ≤ 20
